We go through one compound from US9045450B2, “Method for chemical synthesis of antrocin and use thereof for suppressing non-small cell lung cancer” (KAIYEW INVESTMENT CORP., priority 2011, dated 2015).

In experiment [1] the test system is human non-small cell lung cancer cells (CL1-0, CL1-5, H1975, H441, PC9, A549). The experiment is described as follows: Cytotoxicity / cell proliferation, sulforhodamine B. In kind it is cell-based. As to conditions: NSCLC cell lines, antrocin 0.5-10 μM, two days, FIG. 4 (A). On the procedure:
Human lung cancer cell lines (CL1-0, CL1-5, H1975, H441, PC9, A549) and human bronchial epithelia cell lines (BEAS-2B) were obtained from the Institute of Clinical Medicine, Taipei Medical University. The cells were grown and maintained in DMEM medium (Dulbecco's Modified Eagle's Medium and RPMI basal medium supplemented with 10% fetal bovine serum, 2 mM glutamine, […] streptomycin, and 100 U/ml penicillin in a wet incubator at 5% CO2.
Lung cancer cell were grown in a medium supplemented with 10% fetal bovine serum until the cells grew to approximately 80% of their full-blown size. Old culture solution was drained, the lung cancer cells were washed with PBS buffer solution (phosphate buffered saline), and 10 ml of serum-free culture medium was added. Different pharmaceutical drugs were added according to experimental purposes, all reactions were carried out in an incubator at 37° C.
Human lung cancer cells (CL1-0, CL1-5, H1975, H441, PC9, A549) and human bronchial epithelial cells (BEAS-2B) were seeded in 96-well culture plates (2000 cells/well) and incubated overnight in 100 μl complete DMEM. […] After two days, total number of human cells in each well was measured using sulforhodamine B (a fluorescent protein dye). […] The optical density was measured at 562 nm by a microtiter plate detector. […]

The next experiment has as its system XIAP. Kind of experiment: Protein expression in H441 cells (FIG. 6). The experiment is classed as cell-based, human. An excerpt: (§1) The inhibitory effect of antrocin on protein expression is presented as relative multiple.Beta-actin protein was the internal reference (loading control).
A further experiment relates to caspase-3 enzyme. Kind of experiment: Protein expression in H441 cells (FIG. 6). The experiment is classed as cell-based, human. As to conditions: increasing dose.
Description: as §1

The subject of a further experiment is cyclin D1. Kind of experiment: Protein expression in H441 cells (FIG. 6). The experiment is classed as cell-based, human.
Description: as §1

Take `C=C1CC[C@H]2C(C)(C)CCC[C@@]23C(=O)OC[C@@H]13` [antrocin]: the “inhibitory effect on cancer cell proliferation” value in experiment [1] is listed as “significant inhibitory effect”. For the same compound, the “inhibition of XIAP protein expression” value in the experiment with XIAP is given as “dose-dependently inhibited”. Further, the “activation of caspase enzyme 3” value in the experiment with caspase-3 enzyme is “markedly activated”. In addition, the “inhibition of cyclin D1 protein expression” value with cyclin D1 was “dose-dependently inhibited”.
